Experimental data taken from PMC12115197, “Neuroprotective Potential of Tetraselmis chuii Compounds: Insights into Blood–Brain Barrier Permeability and Intestinal Transport” (Pharmaceuticals, 2025).
Values joined by “and” are separate entries in the source; they are usually repeats but may differ in a detail not shown here. Equal entries are not always repeated. “Also recorded” adds a separate entry of the source. Marks after values point to notes of the source that are not given here.

Experiments:
[1] = system: HBMEC cells; assay: Blood-brain barrier transport study (Transwell, UHPLC-q-TOF-MS); type: in vitro ADME, human; conditions: for Permeability / transport to the lower compartment in HBMEC cells, over the incubation times tested: OP-1 extract 40 µg mL−1, 2-24 h, time not specified (overall or maximum); for Te% ± SEM HBMEC Cells 2 h: OP-1 extract 40 µg mL−1, 2 h; for Te% ± SEM HBMEC Cells 2 h / Te% ± SEM HBMEC Cells 4 h / Te% ± SEM HBMEC Cells 24 h: Te = CLower/CUpper × 100; for Te% ± SEM HBMEC Cells 4 h: OP-1 extract 40 µg mL−1, 4 h; for Te% ± SEM HBMEC Cells 24 h: OP-1 extract 40 µg mL−1, 24 h
Method: The HBMEC cell line was used as a simplified in vitro model of the BBB endothelium. For this, cells were seeded at a density of 1.6 × 10^5 cells/cm^2 into 12-well Transwell® plates (0.4 μm pore, Corning Costar Corp., Corning, NY, USA) coated with rat tail collagen-I (100 μg mL^−1). Medium was changed every second day until a monolayer was formed (10 days), and the transport studies were initiated.
Medium containing 0.4% ethanol was used as the control group, and the lower chamber was filled with 1.5 mL of medium. The cells were incubated under these conditions for 2, 4, and 24 h. After incubation time, cell culture medium from both the upper and lower compartments was collected, dried using a freeze dryer (Martin Christ, Osterode am Harz, Germany), and stored at −80 °C until the chemical characterization was performed to assess the transport efficiency of the bioactive compounds.
(§1) The transport efficiency of bioactive compounds across the cell layer (Te) was calculated using the Equation (1) proposed by Pogačnik et al. (2016):Te = CLower/CUpper × 100%(1)
(§2) This calculation was performed to understand whether the compound crosses the cell layer and how efficiently it is transported. Here, CLower represents the relative concentration (peak area) of the compound in the lower compartment, and CUpper represents the relative concentration (peak area) of the compound in the upper compartment.
(§3) Obtained samples from the transport assays performed in HBMEC and Caco-2 cells were extracted to recover and concentrate the bioactive compounds in the upper and lower compartments and to prevent possible interferences of the cell culture medium in the analyses. Briefly, dried samples were resuspended in 0.5 mL of H2O and mixed with vortex for 10 s. Then, 0.5 mL of AcOEt was added, mixed with vortex for 10 s, and centrifuged at 14,000 rpm for 5 min. After centrifugation, the supernatant (AcOEt) was carefully transferred to a 1.5 mL Eppendorf tube and dried in a SpeedVac (SPD1030, Thermo Fisher Scientific) device at 40 °C and 13 mbar pressure. Finally, the dried extracts were resuspended in 25 μL of pure ethanol for their subsequent analysis.
(§4) The analysis of the obtained samples from HBMEC cells, Caco-2 cells, and PAMPA-BBB experiments was carried out using the same conditions and instrumentation as in our previous study. Briefly, 10 μL of each sample was injected into an Agilent 1290 UHPLC system equipped with a DAD detector and coupled to an Agilent 6540 q-TOF/MS equipped with an orthogonal atmospheric pressure chemical ionization (APCI) source, all from Agilent Technologies (Santa Clara, CA, USA). Carotenoids were separated using a Thermo Fisher Scientific Accucore C30 column (2.6 μm, 4.6 × 50 mm), applying a flow rate of 0.8 mL min^−1 at 30 °C. Methanol/MTBE/water (90:7:3%) and methanol/MTBE (10:90%) were used as mobile phases, and the chromatographic gradient started with 0%B, changing it to 100%B within 12 min. This was kept constant for 1.5 min before returning to the initial conditions.
(§5) The results were processed using the Agilent Mass Hunter Qualitative software (version B.10.0). A peak intensity threshold of 5000 (nearly 4 times the noise signal) in the upper compartments was applied to obtain reliable and accurate results, and a relative quantification was performed. Peaks below this threshold value were excluded from the analysis.

[2] = system: Caco-2 cells; assay: Intestinal transepithelial transport study (Transwell, UHPLC-q-TOF-MS); type: in vitro ADME, human; conditions: for Permeability / transport to the lower compartment in Caco-2 cells, over the incubation times tested: OP-1 extract 40 µg mL−1, 2-24 h, time not specified (overall or maximum); for Te% ± SEM Caco-2 Cells 2 h: OP-1 extract 40 µg mL−1, 2 h; for Te% ± SEM Caco-2 Cells 2 h / Te% ± SEM Caco-2 Cells 4 h / Te% ± SEM Caco-2 Cells 24 h: Te = CLower/CUpper × 100; for Te% ± SEM Caco-2 Cells 4 h: OP-1 extract 40 µg mL−1, 4 h; for Te% ± SEM Caco-2 Cells 24 h: OP-1 extract 40 µg mL−1, 24 h
Method: as §1, §2
Caco-2 cells were grown according to the protocol described by Rojo-Poveda et al. (2020) to evaluate the intestinal permeability. Briefly, Caco-2 cells were seeded into inserts (0.4 μm pore, Corning Costar Corp., Corning, NY, USA) in 12-well plates. Then, 0.5 mL of complete DMEM culture medium containing approximately 300,000 cells was applied to the apical surface (AP) of each insert, and 1.5 mL of the same culture medium was added to the basolateral side (BL). Cells were allowed to grow for 21 days to differentiate and form a monolayer, changing the culture medium every 2–3 days.
The Caco-2 transport studies were performed using the same procedures as for HBMEC experiments (described in Section 4.5.2 and Section 4.5.3), but using DMEM as cell culture medium and recording TEER measurements.
as §3, §4, §5

[3] = system: differentiated SH-SY5Y cells; assay: Neuroprotection against H2O2-induced toxicity in SH-SY5Y cells (MTT); type: cell-based, human; conditions: H2O2 65 µM, 24 h
Method: All the experiments were performed in triplicate.
All the experiments were repeated three times.

[4] = Neuroprotection against L-glutamate-induced toxicity in SH-SY5Y cells (MTT); conditions: human
Method: Then, the viability was determined by the MTT assay as below. At the end of the 24 h incubation period, the medium was removed, and 0.5 mg mL^−1 MTT solution was added to each well. The cells were incubated at 37 °C for 3 h. At the end of the incubation, MTT was carefully removed, and formazan crystals in the wells were dissolved by adding 100 µL of DMSO. The absorbance of the solution was measured by a plate reader at 570 nm wavelength. Cell viability was calculated by comparing the absorbance values of treated cells with the control group (ethanol-treated cells). […] All the experiments were performed in triplicate.
In the control group, DMEM/F12 cell medium supplemented with 1% FBS, 100 U mL^−1 penicillin, 100 μg mL^−1 streptomycin, 250 ng mL^−1 antimycotic, and 0.4% ethanol was used. […] Cell viability was assessed by MTT assay at the end of the experiments. All the experiments were repeated three times.

CC1=C(C#C/C(C)=C/C=C/C(C)=C/C=C/C=C(C)/C=C/C=C(C)/C=C/[C@@]23O[C@]2(C)C[C@@H](O)CC3(C)C)C(C)(C)C[C@H](O)C1 [diadinoxanthin]
Permeability / transport to the lower compartment in HBMEC cells, over the incubation times tested [1]: could not be detected in the lower compartment | Permeability / transport to the lower compartment in Caco-2 cells, over the incubation times tested [2]: could not be detected in the lower compartment

CC1=CCCC(C)(C)C1/C=C/C(C)=C/C=C/C(C)=C/C=C/C=C(C)/C=C/C=C(C)/C=C/C1=C(C)CCCC1(C)C (stereo not drawn) [α-carotene]
Permeability / transport to the lower compartment in HBMEC cells, over the incubation times tested [1]: could not be detected in the lower compartment | Permeability / transport to the lower compartment in Caco-2 cells, over the incubation times tested [2]: could not be detected in the lower compartment

CC1=C(C#C/C(C)=C/C=C/C(C)=C/C=C/C=C(C)/C=C/C=C(C)/C=C/C2=C(C)CCCC2(C)C)C(C)(C)C[C@H](O)C1 [Crocoxanthin]
Permeability / transport to the lower compartment in HBMEC cells, over the incubation times tested [1]: ≈ 3% and 3% | Te% ± SEM HBMEC Cells 2 h [1]: 3.4 ± 3.2 ^a % | Te% ± SEM HBMEC Cells 4 h [1]: 0.9 ± 0.3 ^b % | Te% ± SEM HBMEC Cells 24 h [1]: 2.7 ± 0.6 ^a % | Permeability / transport to the lower compartment in Caco-2 cells, over the incubation times tested [2]: ≈ 12% and 12.1% | Te% ± SEM Caco-2 Cells 2 h [2]: 12.0 ± 9.5 ^a % | Te% ± SEM Caco-2 Cells 4 h [2]: 11.8 ± 5.6 ^a % | Te% ± SEM Caco-2 Cells 24 h [2]: 12.1 ± 1.5 ^a %

C\C(C=C=C1C(C)(C)C[C@H](O)C[C@@]1(C)O)=C/C=C/C(C)=C/C=C/C=C(C)/C=C/C=C(\C)C(=O)C[C@@]12O[C@]1(C)C[C@@H](O)CC2(C)C [Fucoxanthinol]
Te% ± SEM HBMEC Cells 2 h [1]: 4.41% and 4.4 ± 1.1 ^c % | Te% ± SEM HBMEC Cells 2 h ([1]; listed as fucoxanthinol): 4.4% | Te% ± SEM HBMEC Cells 4 h [1]: 5.13% and 5.1 ± 0.1 ^b % | Te% ± SEM HBMEC Cells 24 h [1]: 18.94% and 18.9 ± 2.3 ^a % | Te% ± SEM Caco-2 Cells 2 h [2]: 7.01% and 7.0 ± 0.2 ^c % | Te% ± SEM Caco-2 Cells 2 h ([2]; listed as fucoxanthinol): 7.0% | Te% ± SEM Caco-2 Cells 4 h [2]: 8.63% and 8.6 ± 2.2 ^b % | Te% ± SEM Caco-2 Cells 24 h [2]: 18.36% and 18.4 ± 7.2 ^a %

hydrogen peroxide [H2O2]
Cell viability compared to control group, neurotoxic agent alone [3]: 48%

echinenone I
Permeability / transport to the lower compartment in HBMEC cells, over the incubation times tested [1]: could not be detected in the lower compartment | Permeability / transport to the lower compartment in Caco-2 cells, over the incubation times tested [2]: could not be detected in the lower compartment

CC(=C/C=C/C(C)=C/C=C/C=C(C)/C=C/C=C(\C)C=C=C1C(C)(C)C[C@H](O)C[C@@]1(C)O)/C=C/[C@@]12O[C@]1(C)C[C@@H](O)CC2(C)C [Neoxanthin]
Permeability / transport to the lower compartment in HBMEC cells, over the incubation times tested [1]: 13.2% | Te% ± SEM HBMEC Cells 4 h [1]: 1.4 ± 0.2 ^b % | Te% ± SEM HBMEC Cells 4 h ([1]; listed as neoxanthin): 1.4% | Te% ± SEM HBMEC Cells 24 h [1]: 13.2 ± 4.3 ^a % | Te% ± SEM HBMEC Cells 24 h ([1]; listed as neoxanthin): 13.2% | Permeability / transport to the lower compartment in Caco-2 cells, over the incubation times tested [2]: ≈ 0.6% and 0.6% | Te% ± SEM Caco-2 Cells 2 h [2]: 0.5 ± 0.3 ^b % | Te% ± SEM Caco-2 Cells 4 h [2]: 0.4 ± 0.1 ^b % | Te% ± SEM Caco-2 Cells 24 h [2]: 0.6 ± 0.4 ^a %

C=C1C[C@@H](O)CC(C)(C)[C@]1(O)CC(=O)/C(C)=C/C=C/C(C)=C/C=C/C=C(C)/C=C/C=C(C)/C=C/[C@H]1C(C)=C[C@H](O)CC1(C)C [Prasinoxanthin]
Te% ± SEM HBMEC Cells 24 h [1]: 8.9 ± 2.3% | Permeability / transport to the lower compartment in Caco-2 cells, over the incubation times tested [2]: could not be detected; also recorded: could not pass through the intestinal epithelium

echinenone II
Permeability / transport to the lower compartment in HBMEC cells, over the incubation times tested [1]: could not be detected in the lower compartment | Permeability / transport to the lower compartment in Caco-2 cells, over the incubation times tested [2]: could not be detected in the lower compartment

CC1=C(/C=C/C(C)=C/C=C/C(C)=C/C=C/C=C(C)/C=C/C=C(C)/C=C/C2=C(C)CCCC2(C)C)C(C)(C)CCC1 [β-carotene]
Permeability / transport to the lower compartment in HBMEC cells, over the incubation times tested [1]: could not be detected in the lower compartment | Permeability / transport to the lower compartment in Caco-2 cells, over the incubation times tested [2]: could not be detected in the lower compartment

CC1=C(C#C/C(C)=C/C=C/C(C)=C/C=C/C=C(C)/C=C/C=C(C)/C=C/C2=C(C)C[C@@H](O)CC2(C)C)C(C)(C)C[C@H](O)C1 [Diatoxanthin]
Permeability / transport to the lower compartment in HBMEC cells, over the incubation times tested [1]: 8.1% | Te% ± SEM HBMEC Cells 4 h [1]: 1.1 ± 0.1 ^b % | Te% ± SEM HBMEC Cells 4 h ([1]; listed as diatoxanthin): 1.1% | Te% ± SEM HBMEC Cells 24 h [1]: 8.1 ± 3.4 ^a % | Te% ± SEM HBMEC Cells 24 h ([1]; listed as diatoxanthin): 8.1% | Permeability / transport to the lower compartment in Caco-2 cells, over the incubation times tested [2]: 4.4% | Te% ± SEM Caco-2 Cells 2 h [2]: 1.4 ± 0.1 ^c % | Te% ± SEM Caco-2 Cells 2 h ([2]; listed as diatoxanthin): 1.4% | Te% ± SEM Caco-2 Cells 4 h [2]: 2.3 ± 0.3 ^b % | Te% ± SEM Caco-2 Cells 24 h [2]: 4.4 ± 0.9 ^a % | Te% ± SEM Caco-2 Cells 24 h ([2]; listed as diatoxanthin): 4.4%

zeaxanthin/lutein
Permeability / transport to the lower compartment in HBMEC cells, over the incubation times tested [1]: could not be detected in the lower compartment | Permeability / transport to the lower compartment in Caco-2 cells, over the incubation times tested [2]: could not be detected in the lower compartment

CC1=C(/C=C/C(C)=C/C=C/C(C)=C/C=C/C=C(C)/C=C/C=C(C)/C=C/[C@@]23O[C@]2(C)C[C@@H](O)CC3(C)C)C(C)(C)C[C@H](O)C1 [antheraxanthin]
Permeability / transport to the lower compartment in HBMEC cells, over the incubation times tested [1]: could not be detected in the lower compartment | Permeability / transport to the lower compartment in Caco-2 cells, over the incubation times tested [2]: could not be detected in the lower compartment

N[C@@H](CCC(=O)O)C(=O)O [L-glutamate]
viability at 24 h, 23 mM [4]: 47%

CC(/C=C/C=C(C)/C=C/[C@@]12O[C@]1(C)C[C@@H](O)CC2(C)C)=C\C=C\C=C(C)\C=C\C=C(C)\C=C\[C@@]12O[C@]1(C)C[C@@H](O)CC2(C)C [Violaxanthin]
Te% ± SEM HBMEC Cells 24 h [1]: 13.9 ± 6.0% | Permeability / transport to the lower compartment in Caco-2 cells, over the incubation times tested [2]: could not be detected; also recorded: could not pass through the intestinal epithelium
